# Laboratory results from PMC3376645 (Chemical Communications (Cambridge, England), 2012).
# Tests used:
# [1] = approximate; stated without experiment or reference; cited from earlier work
# [2] = tested on: thrombin; experiment: LC-MS analysis of aliquots to determine conversion; format: biochemical; settings: 1 mM PMSF
# [3] = Gelation screening in buffer by heat/cool method; format: physicochemical; settings: buffer 100 mM PBS, 10% DMSO, pH = 7.2
molecule,measurement,setting,value
"Nc1ccc(C(=O)O)cc1 [PABA, p-aminobenzoic acid]",pKa,[1],~5
O=S(=O)(F)Cc1ccccc1 [PMSF],effect of thrombin inhibitor on enzymatic cleavage of compound 4,[2],decrease in the rate of enzymatic cleavage
PABA-F5Phe-NH2 [Compound 1],critical gel concentration (cgc),[3],54 mM
